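A five-concentration, 48-hour dose response in 96-well plates underlies each endpoint, interpolated linearly between surrounding concentrations. GI50 is the concentration that inhibits growth by half. TGI marks complete inhibition of growth.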
What was measured:
Assay in all cases: NCI anticancer screen, dose series, 48 h
[1] = test system: EKVX NSCLC
[2] = test system: HL-60(TB) leukemia
[3] = test system: SK-MEL-5 melanoma
[4] = test system: HOP-62 NSCLC
[5] = test system: RXF 393 renal
[6] = test system: COLO 205 colon
[7] = test system: HOP-92 NSCLC
[8] = test system: PC-3 prostate
[9] = test system: CCRF-CEM leukemia
[10] = test system: T-47D breast

Compound	GI50 [1] [µM]	TGI [1] [µM]	GI50 [2] [µM]	TGI [2] [µM]	GI50 [3] [µM]	TGI [3] [µM]	GI50 [4] [µM]	TGI [4] [µM]	GI50 [5] [µM]	TGI [5] [µM]	GI50 [6] [µM]	TGI [6] [µM]	GI50 [7] [µM]	TGI [7] [µM]	GI50 [8] [µM]	TGI [8] [µM]	GI50 [9] [µM]	TGI [9] [µM]	TGI [10] [µM]	GI50 [10] [µM]
Cc1cc(S(=O)(=O)Nc2nc3ccccc3[nH]2)c(SCc2ccccc2)cc1Cl	> 100	> 100	> 100	> 100	> 100	> 100	22.7	> 100	> 100	> 100	> 100	> 100	62.2	> 100	> 100	> 100	12.3	24.8		
COC(=O)[C@@H]1[C@H](O)[C@H](C)[C@H](O)[C@H](C)/C=C\C=C(C)C(=O)Nc2c(C)c(OC(C)=O)c3c(c2O)C(=O)C(C)=C2OCOC(=C23)C(C)=C[C@@](C)(O)[C@H](O)[C@@H](C)[C@H]1OC(C)=O		> 100		34		> 100		> 100		> 100				> 100		> 100		> 100		
CC1NCCc2c1[nH]c1cc(O)ccc21 (stereo unspecified)		> 100		> 100		> 100		> 100		> 100		> 100		> 100				> 100		
Cc1ccccc1NC(=O)C(=O)CC(=O)C1CCOC1=O (stereo unspecified)		> 100		> 100		> 100		> 100		> 100		> 100		> 100				> 100		
COC1C(O)CC(OC2CC(OC3CC(O[C@@H]4C(=O)c5c(cc6cc(OC7CC(OC8CC(O)C(O)C(C)O8)C(O)C(C)O7)c(C)c(O)c6c5O)C[C@H]4[C@H](OC)C(=O)[C@@H](O)[C@@H](C)O)OC(C)C3O)OC(C)C2O)OC1C (stereo partly specified)		8.06	< 0.0215	1.57		0.032		3.87				0.0921		1.06			0.0329	> 100	0.203	
CCP(C)(C)=O		> 100				> 100		> 100		> 100		> 100						> 100		
NC(=NCCO)c1ccc(N2CCCN(c3ccc(C(N)=NCCO)cc3)CC2)cc1							91.7	> 100			> 100	> 100							> 100	> 100
C/C=C/C=C/CCCCCCCCCCCCC[C@]1(OC)C=CC(CC(=O)OC)OO1 (stereo partly specified)	26.3	57.6				31.1	43.9	> 100	16.5	31	18.9	36.1					6.9	28.7		
CC(C)(C)c1cc(-c2c3nc(c(-c4cc(C(C)(C)C)cc(C(C)(C)C)c4)c4ccc([nH]4)c(-c4cc(C(C)(C)C)cc(C(C)(C)C)c4)c4nc(c(-c5cc(C(C)(C)C)cc(C(C)(C)C)c5)c5ccc2[nH]5)C=C4)C=C3)cc(C(C)(C)C)c1		> 100		> 100		> 100		> 100		> 100		> 100		> 100				> 100		
COc1cc2c(c(OC)c1OC)C(=O)c1c-2n(CCCN=[N+]=[N-])c(=O)c2cc([N+](=O)[O-])ccc12	> 100	> 100	> 100	> 100	> 100	> 100	30.7	> 100	19.1	66.1	> 100	> 100							> 100	> 100
Cc1cc(Cl)cc2c1NC(=O)C2(O)CC(=O)c1ccc(F)cc1 (stereo unspecified)		> 100						> 100		41.5		> 100		> 100						
CCOC(=O)C1=C(C)N(NC(=O)OC)C2(N)N(NC(=O)OC)C(C)=C(C(=O)OCC)C12C#N (stereo unspecified)		> 100		> 100		> 100		> 100												
CCOC(=O)C1=C(c2ccccc2)NC(c2ccccc2)=C(C(=O)OCC)c2c1c(=O)cc[nH]c2=O				> 100				> 100				> 100		> 100						
OCCSCC/C(=N\N=C(/CCSCCO)c1ccccc1)c1ccccc1		> 100		> 100		> 100		> 100		99.7		> 100		> 100				> 100		
C=C(CN(C)Cc1ccccc1)c1ccc(C(=O)Nc2ccccc2N)cc1	8.17	37.9			6.72	14.6	3.61	> 50			7.72	17.6	3.36	24.5	4.95	> 50			4.75	0.611
COc1ccc(C(=O)C/C(=N/NC(N)=S)C(=O)Nc2ccccc2)cc1		> 100		> 100		> 100				> 100		> 100						> 100		
C=C[Si](C)(C)COC(=O)/C(C#N)=C/C=C/c1ccccc1		> 100		> 100		> 100		> 100		> 100		> 100		> 100				> 100		

From PubChem BioAssay (NCI)
